Laboratory results as given in patent EP4610262A1, “MACROCYCLIC COMPOUND AS CDK9 INHIBITOR AND USE THEREOF” (Artivila Biopharma, priority 2022, dated 2024).

How the values were obtained:
CDK9 = CDK9 (Homo sapiens, UniProt P50750); experiment: Inhibition of CDK9 kinase activity (caliper mobility shift assay); assay type: biochemical; details: for IC50: 10 concentrations from 10 µM, three-fold dilutions
Experimental: Compounds were tested at a concentration of 10 nM with detection in duplicate wells, or tested at 10 concentrations starting from 10 µM with three-fold serial dilutions, with detection in duplicate wells.
The inhibitory effect of the compounds on the activity of CDK9 protein kinase was detected by the caliper mobility shift assay method. 250 nL of the compound at 100-fold final concentration was transferred to a target 384-well-plate with a dispenser Echo 550. A kinase solution at 2.5-fold final concentration was prepared using 1× kinase buffer. 10 µL of the kinase solution at 2.5-fold final concentration was added to the compound well and positive control well respectively. 10 µL of 1× kinase buffer was added to the negative control well. The 384-well plate was centrifuged at 1000 rpm for 30 seconds and incubated at room temperature for 10 minutes. A mixed solution of ATP and kinase substrate at 5/3-fold final concentration was prepared with 1× kinase buffer, and to the 384-well plate was added with 15 µL per well of the mixed solution of ATP and substrate at 5/3-fold final concentration to start the reaction. The plate was centrifuged at 1000 rpm for 30 seconds, shaken to mix evenly, and incubated at room temperature for a corresponding time. 30 µL of detection stopping solution was added to terminate the kinase reaction. The 384-well plate was centrifuged at 1000 rpm for 30 seconds and shaken to mix evenly. The conversion rate was read with Caliper EZ Reader. The percent conversion inhibition rate = (% positive control conversion rate mean - % sample conversion rate / (% positive control conversion rate mean - % negative control conversion rate mean). Among them: negative control wells represent the conversion rate readings of kinase buffer background wells; positive control wells represent the conversion rate readings of wells without inhibition by compound. With the log value of concentration as the x-axis and the percentage inhibition rate as the y-axis, a dose-response curve was fitted using the log (inhibitor) vs. response -Variable slope of the analysis software GraphPad Prism 5 to obtain the IC50 value of each compound on enzyme activity. Calculation formula: y=Bottom + (Top-Bottom)/(1+10^((LogIC50-x) × hillslope)), x: logarithm of inhibitor concentration; y: % inhibition rate.

MV-4-11 = experiment: CDK9 cell activity assay, cell growth inhibition (CellTiter-Glo, 72 hours); assay type: cell-based; details: Homo sapiens, MV4-11
Experimental: (§1) In the CDK9 cell activity assay, the cell line MV-4-11 was cultured in IMDM culture medium containing 10% fetal bovine serum (containing 100 U/mL penicillin and 0.1 g/L streptomycin); the cell line HCC1187 was cultured in RPMI-1640 culture medium containing 10% fetal bovine serum (containing 100 U/mL penicillin and 0.1 g/L streptomycin); the cell line Mia Paca-2 was cultured in DMEM containing 10% fetal bovine serum and 2.5% horse serum (containing 100 U/mL penicillin and 0.1 g/L streptomycin); and the cell line A375 was cultured in RPMI-1640 culture medium containing 10% fetal bovine serum (containing 100 U/mL penicillin and 0.1 g/L streptomycin). All cells were cultured in an incubator with saturated humidity at 37°C with 5% CO2.
(§2) When MV-4-11 cells, HCC1187 cells, Mia Paca-2 cells, and A375 cells grew to 80%-90% confluence, they were digested with trypsin, resuspended, counted, and diluted to a certain cell density with complete medium. 100 µL of the cells was plated into each well of a 96-well plate, and the complete medium was used as a background control. The cells were cultured overnight in an incubator with saturated humidity at 37°C with 5% CO2. The compounds were diluted with DMSO to a final concentration of 200×. 3 µL of the stock solution of the above compounds in DMSO was added to 197 µL of complete medium, and 50 µL of the compound diluted in the medium was added to the cells of each well. The cells were cultured in an incubator with saturated humidity at 37°C with 5% CO2 for 72 hours. After 72 hours, the culture plates were placed at room temperature for equilibrium. 40 µL of CellTiter-Glo® reagent was added to each well. The plate was mixed evenly on a shaker for 2 minutes to lyse the cells then incubated at room temperature for 60 minutes to stabilize the chemiluminescent signal, and the chemiluminescence was read using a PE EnVision microplate reader. The inhibition rate on cell growth was calculated as % Inh = (DMSO well - compound treatment well) / (DMSO well - background well) x 100, and fitting was performed using GraphPad Prism 5 to obtain the IC50 values against cell growth.

HCC1187 = experiment: as above; assay type: cell-based; details: Homo sapiens
Experimental: as §1, §2

Sequence of CDK9 (P50750 whole entry): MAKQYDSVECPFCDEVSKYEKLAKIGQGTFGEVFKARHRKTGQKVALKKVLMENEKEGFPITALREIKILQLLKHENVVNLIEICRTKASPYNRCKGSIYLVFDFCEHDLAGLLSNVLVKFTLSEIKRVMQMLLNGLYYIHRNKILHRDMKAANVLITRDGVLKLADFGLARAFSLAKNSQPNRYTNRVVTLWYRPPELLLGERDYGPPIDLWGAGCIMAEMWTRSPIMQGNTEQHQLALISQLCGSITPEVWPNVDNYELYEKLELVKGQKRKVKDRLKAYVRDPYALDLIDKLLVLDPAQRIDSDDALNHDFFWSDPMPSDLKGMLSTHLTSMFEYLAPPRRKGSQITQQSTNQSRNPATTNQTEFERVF
Sequence of CDK9 (O60563 whole entry partner): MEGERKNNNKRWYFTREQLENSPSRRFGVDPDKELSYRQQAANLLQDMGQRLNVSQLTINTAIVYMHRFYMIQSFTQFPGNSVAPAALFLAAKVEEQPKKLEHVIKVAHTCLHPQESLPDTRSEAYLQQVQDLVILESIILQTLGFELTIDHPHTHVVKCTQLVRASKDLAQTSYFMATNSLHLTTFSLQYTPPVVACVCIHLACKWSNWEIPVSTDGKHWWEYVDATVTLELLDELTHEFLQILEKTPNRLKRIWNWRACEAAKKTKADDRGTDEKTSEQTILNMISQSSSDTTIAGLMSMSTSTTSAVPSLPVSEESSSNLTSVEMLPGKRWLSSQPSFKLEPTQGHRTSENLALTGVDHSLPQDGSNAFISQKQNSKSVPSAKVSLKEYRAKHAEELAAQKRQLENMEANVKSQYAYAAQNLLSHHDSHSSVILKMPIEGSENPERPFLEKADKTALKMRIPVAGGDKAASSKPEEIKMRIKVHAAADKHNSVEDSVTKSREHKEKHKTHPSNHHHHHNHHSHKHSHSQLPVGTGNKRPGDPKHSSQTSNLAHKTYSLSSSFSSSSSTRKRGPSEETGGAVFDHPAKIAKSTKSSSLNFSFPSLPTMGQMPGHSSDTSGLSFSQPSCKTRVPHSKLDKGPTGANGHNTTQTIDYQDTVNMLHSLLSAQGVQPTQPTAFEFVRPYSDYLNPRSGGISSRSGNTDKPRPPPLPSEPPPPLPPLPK

IC50 (CDK9) | IC50 (MV-4-11) | IC50 (HCC1187) | inhibition at 0.01 µM (CDK9; compound at 10 nM, read-out: Inhibition rate on CDK9 kinase activity) | SMILES
< 100 nM | – | – | – | Cc1ccc2cc1-c1nc(ncc1F)Nc1cccc(c1)NC/C=C\CN2 [Compound 29, (Z)-2^5-fluoro-1^6-methyl-3,5,10-triaza-2(4,2)-pyrimidina-1,4(1,3)-dibenzenacyclodecaphan-7-ene]
< 100 nM | – | – | – | Clc1cnc2nc1-c1cnn(c1)CCCCCNc1cccc(c1)N2 [Compound 32, (Z)-2^5-chloro-1^1H-3,5-diaza-2(4,2)-pyrimidina-1(4,1)-pyrazola-4(1,3)-benzenacyclodecaphane]
< 100 nM | – | – | – | Cc1ccc2cc1-c1nc(ncc1Cl)Nc1cccc(c1)CNCCCCO2 [Compound 36, 2^5-chloro-1^6-methyl-11-oxy-3,6-diaza-2(4,2)-pyrimidina-1,4(1,3)-dibenzocycloundecaphane]
< 100 nM | – | – | – | Cc1ccc2cc1-c1nc(ncc1Cl)Nc1cccc(c1)NCCCCN2 [Compound 22, 2^5-chloro-1^6-methyl-3,5,10-triaza-2(4,2)-pyrimidina-1,4(1,3)-dibenzocyclodecane]
< 100 nM | < 250 nM | 250 to 1000 nM | – | Clc1cnc2nc1-c1cnn(c1)CC/C=C\CNc1cccc(c1)N2 [Compound 31, (1^4Z,7Z)-2^5-chloro-1^1H-3,5-diaza-2(4,2)-pyrimidina-1(4,1)-pyrazola-4(1,3)-benzenacyclodecaph an-7-ene]
100 to 500 nM | – | – | – | Clc1cnc2nc1NCCCCCn1cc(cn1)N2 [Compound 47, (E)-1^5-chloro-3^1H-2,9-diaza-1(2,4)-pyrimidina-3(4,1)-pyrazolacyclononaphane]
< 100 nM | < 250 nM | < 250 nM | – | Cc1ccc2cc1-c1nc(ncc1Cl)Nc1cnn(c1)CCOCCN2 [Compound 41, (E)-2^5-chloro-1^6-methyl-4^1H-7-oxa-3,10-diaza-2(4,2)-pyrimidina-4(4,1)-pyrazola-1(1,3)-benzena cyclodecaphane]
< 100 nM | – | – | – | c1cc2cc(c1)Nc1nccc(n1)NCCCCCNC2 [Compound 24, 2,5,11-triaza-1(2,4)-pyrimidina-3(1,3)-benzocycloundecaphane]
100 to 500 nM | – | – | – | Clc1cnc2nc1N1CCC(C1)OCCCNCc1cccc(c1)N2 (stereo not shown) [Compound 45, 2^5-chloro-10-oxa-3,6-diaza-2(4,2)-pyrimidina-1(1,3)-pyrrolidina-4(1,3)-benzenacyclodecaphane]
< 100 nM | – | – | – | COc1ccc2cc1-c1nc(ncc1F)Nc1cccc(c1)NCCCCN2 [Compound 40, 2^5-fluoro-1^6-methoxy-3,5,10-triaza-2(4,2)-pyrimidina-1,4(1,3)-dibenzenacyclodecaphane]
< 100 nM | – | – | 25 to 49% | Cc1nc2sc1-c1nc(ncc1F)Nc1cccc(c1)NCCOCCN2 [Compound 5, 2^5-fluoro-1^4-methyl-8-oxa-3,5,11-triaza-1(5,2)-thiazol-2(4,2)-pyrimidina-4(1,3)-benzenacyclodec aphane]
< 100 nM | – | – | – | Cc1ccc2cc1-c1nc(ncc1F)Nc1cccc(c1)NCCCCN2 [Compound 30, 2^5-fluoro-1^6-methyl-3,5,10-triaza-2(4,2)-pyrimidina-1,4(1,3)-dibenzenacyclodecaphane]
500 to 1000 nM | – | – | – | Clc1cnc2nc1N1CCC(C1)NCCCCNCc1cccc(c1)N2 (stereo not shown) [Compound 44, 2^5-chloro-3,6,11-triaza-2(4,2)-pyrimidina-1(1,3)-pyrrolidina-4(1,3)-benzenacycloalkaphane]
< 100 nM | – | – | – | Cc1ccc2cc1-c1nc(ncc1Cl)Nc1cnn(c1)CC/C=C\CN2 [Compound 27, (4^4E,7Z)-2^5-chloro-1^6-methyl-4^1hydro-3,10-diaza-2(4,2)-pyrimidina-4(4,1)-pyrazole-1(1,3)-benz enecyclodecane-7-ene]
< 100 nM | < 250 nM | < 250 nM | – | Cc1ccc2cc1-c1nc(ncc1Cl)Nc1cccc(c1)CNCCCN2 [Compound 35, 2^5-chloro-1^6-methyl-3,6,10-triaza-2(4,2)-pyrimidina-1,4(1,3)-dibenenacyclodecaphane]
< 100 nM | 250 to 1000 nM | 1000 to 5000 nM | – | COc1ccc2cc1-c1nc(ncc1F)Nc1cccc(c1)NC/C=C\CN2 [Compound 39, (Z)-2^5-fluoro-1^6-methoxy-3,5,10-triaza-2(4,2)-pyrimidina-1,4(1,3)-dibenzenacyclooctyna-7-ene]
< 100 nM | – | – | – | CN1CCCCCNCc2cccc(c2)Nc2ncc(Cl)c1n2 [Compound 25, 1^5-chloro-11-methyl-2,5,11-triaza-1(2,4)-pyrimidina-3(1,3)-benzocycloundecaphane]
< 100 nM | 250 to 1000 nM | 250 to 1000 nM | – | Cc1ccc2cc1-c1nc(ncc1Cl)Nc1cnn(c1)CCNCCN2 [Compound 46, (E)-2^5-chloro-1^6-methyl-4^1H-3,7,10-triaza-2(4,2)-pyrimidina-4(4,1)-pyrazola-1(1,3)-benzenacycl odecaphane]
100 to 500 nM | – | – | – | CN1CCN(c2ccc3cc2COCCCCCNc2nc(ncc2Cl)N3)CC1 [Compound 21, 1^5-chloro-3^4-(4-methylpiperazin-1-yl)-5-oxa-2,11-diaza-1(2,4)-pyrimidina-3(1,3)-benzenacyclou ndecaphane]
< 100 nM | < 250 nM | – | – | Cc1ccc2cc1-c1nc(ncc1Cl)Nc1cnn(c1)CCCCCN2 [Compound 28, (E)-2^5-chloro-1^6-methyl-4^1hydro-3,10-diaza-2(4,2)-diaza-2(4,2)-pyrimidina-4(4,1)-pyrazola-1(1, 3)-benzenacyclodecaphane]

SMILES | IC50 (CDK9) | IC50 (MV-4-11) | IC50 (HCC1187) | inhibition at 0.01 µM (CDK9; compound at 10 nM, read-out: Inhibition rate on CDK9 kinase activity)
Clc1cnc2nc1N1CCC(C1)NCCCNCc1cccc(c1)N2 (stereo not shown) [Compound 43, 2^5-chloro-3,6,10-triaza-2(4,2)-pyrimidina-1(1,3)-pyrrolidina-4(1,3)-benzenacyclodecaphane] | 500 to 1000 nM | – | – | –
Fc1cnc2nc1-c1cccc(c1)NC/C=C\CNc1cccc(c1)N2 [Compound 37, (Z)-2^5-fluoro-3,5,10-triaza-2(4,2)-pyrimidina-1,4(1,3)-dibenzenacyclooctyna-7-ene] | < 100 nM | – | – | –
Clc1cnc2nc1-c1cnn(c1)CCCCCCn1cc(c(Cl)n1)N2 [Compound 33, (1^4Z,4^4E,7Z)-2^5,4^3-chloro-1^1H,4^1H-3-aza-2(4,2)-pyrimidina-1,4(4,1)-bipyrazolacyclodecaphane] | 500 to 1000 nM | – | – | –
Fc1cnc2nc1-c1cccc(c1)NCCCCNc1cccc(c1)N2 [Compound 38, 2^5-fluoro-3,5,10-triaza-2(4,2)-pyrimidina-1,4(1,3)-dibenzenacyclodecaphane] | < 100 nM | 250 to 1000 nM | 250 to 1000 nM | –
Cc1nc2sc1-c1nc(ncc1F)Nc1cccc(c1)NC/C=C\CN2 [Compound 6, (Z)-2^5-fluoro-1^4-methyl-3,5,10-triaza-1(5,2)-thiazolin-2(4,2)-pyrimidina-4(1,3)-benzenacyclodec aphan-7-ene] | 100 to 500 nM | – | – | –
Clc1cnc2nc1-c1cccc(c1)OCCCCNCc1cccc(c1)N2 [Compound 34, 2^5-chloro-11-oxa-3,6-diaza-2(4,2)-pyrimidina-1,4(1,3)-dibenzenacycloundecaphane] | < 100 nM | – | – | –
